From patent US20110152379A1, “COMPOSITION FOR CONTROL OF AGING AND/OR EXTENSION OF LIFE, CONTAINING DAPSONE AS ACTIVE INGREDIENT” (priority 2008, published 2011)

Columns and labels:
mitochondria = experiment: Mitochondria structure staining with MitoTracker Red; assay type: cell-based, human; conditions: pretreated with DDS or DPI, then 1 mM PQ 24 hours; FIG. 30
Protocol: The first photograph indicates the stained mitochondria of the non-treated human diploid fibroblast as a control, the second photograph indicates the stained mitochondria of the PQ-treated human diploid fibroblast, the third photograph indicates the stained mitochondria of the human diploid fibroblast that was pretreated with DDS and then was treated with PQ, and the final photograph indicates the stained mitochondria of the human diploid fibroblast that was treated with DPI and PQ together (by using Confocal process). The values of (A, B, C and D: ×4000) is means±SEM (n=3), # is p<0.005 relative CC; and * is p<0.005 relative C.
The human diploid fibroblasts were cultured at 24-well plate. After the above experiment materials, i.e., the human diploid fibroblasts, were pretreated and then were treated with PQ for 24 hours, the above cells were treated with MitoTracker Red CMXRos (50 nM), which is a staining material for mitochondria, at 37° C. for 30 minutes. The dye is a marker of function for marking mitochondria through marking a transmembrane potential of mitochondria in a cell. After culturing, the cells were washed with PBS and then fixed with 4% of paraformaldehyde at 4° C. for overnight. […] After washing, the cells were covered with a cover glass and visualized through a fluorescence microscope.

human diploid fibroblast = experiment: Growth suppression of human diploid fibroblast by DDS (data not shown); assay type: cell-based; conditions: read-out: DDS concentration that can suppress 50% growth of human diploid fibroblast (1050)
[1] = tested on: mitochondria superoxide anion; experiment: Superoxide anion in mitochondria, MitoSOX Red; assay type: cell-based; conditions: human diploid fibroblast; 1 mM PQ 30 minutes; FIG. 24B
Protocol: (§1) The cell was treated with 1 mM of PQ for 30 minutes, and then was cultured at 37° C. for 15 minutes after adding oxidant-sensitive fluorescent dyes (A) DHE (5 uM, cytosol specific) and (B) MitoSOX (5 uM, mitochondria specific), respectively. For identifying the change of fluorescence, the excitation and emission wavelength of DHE were measured at 515 and 590 nm and MitoSOX was measured at 520 and 580 nm by using a multiwell plate reader. The results were indicated by calculating the results of three experiments as a control rate (%). The statistical significant was expressed as *, # p<0.005; ** p<0.05.
Mitochondria superoxide anion was measured by using the fluorescence material, i.e., MitoSOX Red. […] The cell was twice washed with DPBS and the fluorescence was immediately measured at excitation wavelength 515 nm and emission wavelength 590 nm by using CEFS [Cary Eclipse fluorescence spectrophotometer (Varian, Calif., USA)] machine.

NOX4 = NOX4 mRNA level by RT-PCR in PQ-treated human diploid fibroblast; assay type: cell-based; conditions: 1 mM PQ for 5 minutes, FIG. 26
Protocol: The amount of NOX4 (HDF specific) mRNA, which is a source for generating a cytosolic superoxide anion, increased by PQ was measured. For FIG. 26B, it was quantitived as % rate as compared with a control (non-treated human diploid fibroblast).
RNA of the human diploid fibroblast was isolated by using Trizol Reagent (MRC Cincinnati, USA), and NOX4 and GAPDH were measured through RT-PCR by using Biometra T Gradient PCR (Biometra, Goettingen, Germany) machine. A specific NOX primer; 5′-[…]-3′ (Forward Primer) and 5′-[…]-3′ (Reverse Primer); Primer for GAPDH 5′-[…]-3′ (Forward Primer) and 5′-[…]-3′ (Reverse Primer) were used as primers. DNA that was manipulated by PCR was isolated through 1.2% agarose gel electrophoresis, stained with EtBr to be visualized and then taken a photography that can be shown through UV.

pyruvate kinase = experiment: Pyruvate kinase activity in vivo (worms that fed on DDS); parameters: species or system C. elegans; conditions: FIG. 16B
Protocol: PK activity was analyzed through the decrease degree of absorbance at 340 nm by using the change result from pyruvate and NADH to lactate and NAD by lactate dehydrogenase (LDH). The pyruvate and ATP used for the above process were produced from phosphoenolpyruvate (PEP) and ADP by PK. The analysis in vitro was measured by adding directly DDS along with PK to the above reaction mixture and the analysis in vivo was measured by adding worms that fed on DDS.
Samples were homogenized by rupturing C. elegans with glass bead Precellys 24 homogenizer, twice for 20 seconds, at 5000 rpm in a 100 mM potassium phosphate buffer, pH 7.6, at 37° C. A CHAPS was added to the homogenized sample to be 1% of the final concentration and then centrifuged at 15000 g for 20 minutes. The measurement of pyruvate kinase(PK) activity was performed at 37° C. by adding 300 uL of the reaction mixture contained 100 mM potassium phosphate buffer at pH 7.6 and 37° C., 100 mM MgSO4, 1.3 mM β-NADH, 5000 units/mL of lactate dehydrogenase (LDH), 2 mM adenosine diphosphate (ADP) and 17 mM phosphoenolpyruvate (PEP) into the sample. The change of oxidation degree of NADH was measured at 340 nm of absorbance. PK 1 unit was defined as the change into 1.0 umole of pyruvate per a minute at pH 7.6 and 37° C. […] Type I pyruvate kinase (Sigma) of rabbit muscle was used for in vitro experiment.

SOD1 = experiment: Western blot of SOD1 amount in human diploid fibroblast; assay type: cell-based; conditions: various concentrations of DDS, FIG. 25B
Protocol: Trolox that is well known as a water-soluble vitamin E was used as a positive control.
(§2) The isolated sample was transferred to a nitrocellulose and analyzed through Western Blot using MS601 (Total OXPHOS Complexes Detection Kit, MitoSciences, containing antibodies against SDH30 subunit of complex II (5 μg/ml), Core2 subunit of complex III (0.2 μg/ml), COXII subunit of complex IV (2 μg/ml), and subunit α of F1-ATPase of complex V (0.2 μg/ml)), PCKpan-p, PCKα/β-p, PKCδ-p (Phospho-PKC antibody Sampler Kit, Cell Signaling Technology), PKC α, PCKβ, PKCδ (Life Technologies), β-Actin (Sigma), and the like. The measurement was performed by using a horseradish […] secondary antibodies (Zymed) and ECL (Pierce). The results were shown through visualizing by using Autoradiographic film (Image Reader, LAS-3000Fujifilm, Japan).

PKCβ = experiment: PKC phosphorylation induced by PQ, Western blot; assay type: cell-based; conditions: human diploid fibroblast; 1 mM PQ; FIG. 28
Protocol: as §2

[2] = tested on: cytosolic superoxide anion; experiment: Superoxide anion in cell (cytoplasm), DHE; assay type: cell-based; conditions: human diploid fibroblast; 1 mM PQ 30 minutes; FIG. 24A
Protocol: as §1
The cell was twice washed with DPBS and Ethidium-DNA that fluoresces was immediately measured at excitation wavelength 515 nm and emission wavelength 590 nm by using Cary Eclipse fluorescence spectrophotometer (Varian, Calif., USA) machine.

Nc1ccc(S(=O)(=O)c2ccc(N)cc2)cc1 [DDS, 4,4′-diaminodiphenylsulfone]
shape of mitochondria after PQ (MitoTracker) (mitochondria): recovered, partially
IC50 (human diploid fibroblast): ~745 µM
production of superoxide anion in the mitochondria [1]: suppresses
NOX4 expression increased by PQ (NOX4): decreases
biochemical activity of PK in vivo (pyruvate kinase): suppresses
amount of SOD1 (SOD1): decreases
PKCβ phosphorylation (activity) increased by PQ (PKCβ): reduced
superoxide anion of cytoplasm produced by PQ (DHE assay) [2]: reduced depending upon the concentration of DDS
